The text below walks through data of US20070244153A1 (priority 2004, published 2007).

One may read the melting point as the temperature of the solid-liquid transition.

Series [1] has as its system Pseudoperonospora cubensis. Kind of series: Controlling effect against cucumber downy mildew (spray on cucumber seedlings, 250 ppm). The series is classed as in vivo. Conditions: 250 ppm spray, cucumber seedling 1-leaf stage, 7th day after inoculation; untreated 60 to 80%. As for the experimental part: A solution of the compound in acetone was diluted with water to 250 ppm, and the solution was sprayed to the cucumber seedling (breed: Sagamihangbak, two per plastic pot having a diameter of 7.5 cm) at 1-leaf stage in an amount of 10 mL of the compound/pot. After air-drying, the pot was transferred to a moist chamber provided in the greenhouse, and inoculated by spray with a zoosporic suspension of Pseudoperonospora cubensis. On the 7th day after inoculation the infected area rate for the leaves was examined. Evaluation was carried out by the following criteria.
The infected area rate for untreated groups in the examination was 60 to 80%.

The test system of another series is Phytophthora infestans. It is filed as in vivo. Conditions: 250 ppm spray, tomato seedling 4-leaf stage, 4th day after inoculation; untreated not less than 60%.
A further series deals with Plasmopara viticola. As to the kind of experiment: Controlling effect against grape downy mildew (leaf disk immersion, 250 ppm). It is filed as in vivo. The conditions noted are these: grape leaf disk immersed 3 hours, 10th day after inoculation, untreated 60 to 70%. The protocol: The developed leaf of grape seedling (breed: Cabernet Sauvignon) grown in 1/2000 a pot was cut and prepared a leaf disk having a diameter of 32 mm. A solution of the compound in acetone was diluted with water to 250 ppm, and the leaf disk was immersed for 3 hours. The disk was taken from the agent solution, subjected to air-drying, and then inoculated by spray with a zoosporangia suspension of Plasmopara viticola. The test disk was incubated at 18° C. for 12 hours in a light-dark light cycle. On the 10th day after inoculation the infected area rate for the leaf disk was examined. Evaluation was carried out by the following criteria. The infected area rate for the untreated groups in the examination was 60 to 70%.

For `CC(C)OC(=O)N[C@H](C(=O)N[C@H](CNC(=O)c1ccccc1Cl)C(C)C)C(C)C` [Compound No. 196, N-[1-(S)-[[(2-chlorobenzoyl)amino]methyl]-2-methylpropyl]3-methyl-2-(S)-[(1-methylethyloxycarbonyl)amino]butyramide], the melting point came to 196.8 °C. Moreover, the “Effect: controlling effect against cucumber downy mildew (infected area rate)” value in series [1] is reported as “B (the infected area rate of 5% to less than 50%)”. Further, in the series with Phytophthora infestans, the “Effect: controlling effect against tomato late blight (infected area rate)” value is “A (Infected area rate of less than 5%)”.
`CC(C)OC(=O)N[C@@H](C)C(=O)N[C@H](CNC(=O)c1cc2ccccc2o1)C(C)C` [Compound No. 599, N-[1-(S)-[[(benzofuran-2-carbonyl)amino]methyl]-2-methylpropyl]2-(S)-[(1-methylethyloxycarbonyl)amino]propionamide] came in with a melting point of 146.4 °C. For the same compound, the “Effect: controlling effect against grape downy mildew (infected area rate)” value in the series on Plasmopara viticola is “A (the infected area rate of less than 5%)”. In series [1], the “Effect: controlling effect against cucumber downy mildew (infected area rate)” value was “A (the infected area rate of less than 5%)”. For the same compound, the “Effect: controlling effect against tomato late blight (infected area rate)” value in the series with Phytophthora infestans is recorded as “A (Infected area rate of less than 5%)”.
In turn, `CC(C)OC(=O)N[C@H](C(=O)N[C@H](CNC(=O)c1cccc2onnc12)C(C)C)C(C)C` [Compound No. 929, N-[1-(S)-[(benzoxadiazol-4-yl)carbonylaminomethyl]-2-methylpropyl]3-methyl-2-(S)-[(1-methylethyl)oxycarbonylamino]butyramide] registered a melting point of 242.9 °C. For the same compound, in the series with Plasmopara viticola, the “Effect: controlling effect against grape downy mildew (infected area rate)” value is on record as “B (the infected area rate of 5% to less than 50%)”. The “Effect: controlling effect against cucumber downy mildew (infected area rate)” value in series [1] was “A (the infected area rate of less than 5%)”. In the series with Phytophthora infestans, the “Effect: controlling effect against tomato late blight (infected area rate)” value is “A (Infected area rate of less than 5%)”.
For `CC[C@H](C)[C@@H](CNC(=O)c1ccc2ccccc2n1)NC(=O)[C@@H](NC(=O)OC)C(C)C` [Compound No. 698, N-[1-(S)-[[(quinoline-2-carbonyl)amino]methyl]-2-(S)-methylbutyl]2-(S)-(methyloxycarbonylamino)-3-methylbutyramide], in that order: 174.6 °C, “B (the infected area rate of 5% to less than 50%)”, “A (the infected area rate of less than 5%)” and “A (Infected area rate of less than 5%)”.
Compound `C=COC(=O)N[C@H](C(=O)N[C@H](CNC(=O)c1cc2ccccc2o1)C(C)C)C(C)C` [Compound No. 782, N-[1-(S)-[[(benzofuran-2-carbonyl)amino]methyl]-2-methylpropyl]3-methyl-2-(S)-[(vinyloxycarbonyl)amino]butyramide] gave a melting point of 192.7 °C. Moreover, the “Effect: controlling effect against grape downy mildew (infected area rate)” value with Plasmopara viticola is listed as “A (the infected area rate of less than 5%)”. In addition, the “Effect: controlling effect against cucumber downy mildew (infected area rate)” value in series [1] is “A (the infected area rate of less than 5%)”. The “Effect: controlling effect against tomato late blight (infected area rate)” value in the series with Phytophthora infestans is given as “A (Infected area rate of less than 5%)”.
Consider `C#CC[C@H](NC(=O)OCC(C)C)C(=O)N[C@H](CNC(=O)c1ccc(C)cc1)C(C)C` [Compound No. 76, N-[2-methyl-1-(S)-[[(4-methylbenzoyl)amino]methyl]propyl]2-(S)-[(2-methylpropyloxycarbonyl)amino]-4-pentynamide], for which the melting point was 215.1 °C. The “Effect: controlling effect against tomato late blight (infected area rate)” value with Phytophthora infestans is “A (Infected area rate of less than 5%)”.
Compound `CC(C)COC(=O)N[C@H](C(=O)N[C@H](CNC(=O)c1cccs1)C(C)C)C(C)C` [Compound No. 1020, N-[1-(S)-[[(thiophene-2-carbonyl)amino]methyl]-2-methylpropyl]3-methyl-2-(S)-[(2-methylpropyloxycarbonyl)amino]butyramide] had a melting point of 204.9 °C. In addition, the “Effect: controlling effect against cucumber downy mildew (infected area rate)” value in series [1] was “B (the infected area rate of 5% to less than 50%)”. Besides, in the series on Phytophthora infestans, the “Effect: controlling effect against tomato late blight (infected area rate)” value was “B (Infected area rate of 5% to less than 50%)”.
The compound `CC(C)[C@@H](CNC(=O)c1cc2ccccc2o1)NC(=O)C(C)(C)NC(=O)OC(C)(C)C` displayed a melting point of 140.5 °C.
With `Cc1ccc(C(=O)NC[C@@H](NC(=O)C(NC(=O)OC(C)(C)C)C2CCOC2)C(C)C)cc1` (mixture of isomers) [Compound No. 69, N-[2-methyl-1-(S)-[[(4-methylbenzoyl)amino]methyl]propyl]2-(RS)-[(1,1-dimethylethyloxycarbonyl)amino]-2-(tetrahydrofuran-3-yl)acetamide], the “Effect: controlling effect against grape downy mildew (infected area rate)” value with Plasmopara viticola is “B (the infected area rate of 5% to less than 50%)”. Also, the “Effect: controlling effect against cucumber downy mildew (infected area rate)” value in series [1] was “A (the infected area rate of less than 5%)”. Besides, the “Effect: controlling effect against tomato late blight (infected area rate)” value with Phytophthora infestans is on record as “A (Infected area rate of less than 5%)”.
For the compound `CC[C@H](C)[C@@H](CNC(=O)c1ccc(C)cc1)NC(=O)[C@@H](NC(=O)OC)C(C)C` [Compound No. 306, N-[2-(S)-methyl-1-(S)-[[(4-methylbenzoyl)amino]methyl]butyl]3-methyl-2-(S)-[(methyloxycarbonyl)amino]butyramide], the “Effect: controlling effect against grape downy mildew (infected area rate)” value in the series on Plasmopara viticola was “A (the infected area rate of less than 5%)”. Also, the “Effect: controlling effect against cucumber downy mildew (infected area rate)” value in series [1] is recorded as “A (the infected area rate of less than 5%)”. Further, in the series with Phytophthora infestans, the “Effect: controlling effect against tomato late blight (infected area rate)” value is on record as “A (Infected area rate of less than 5%)”.
The compound `CC(C)OC(=O)N[C@H](C(=O)N[C@H](CNC(=O)c1cccc(Cl)n1)C(C)C)C(C)C` [Compound No. 953, N-[1-(S)-[[(6-chloropyridine-2-carbonyl)amino]methyl]-2-methylpropyl]3-methyl-2-(S)-[(1-methylethyloxycarbonyl)amino]butyramide] had a melting point of 204.9 °C. Besides, the “Effect: controlling effect against grape downy mildew (infected area rate)” value in the series with Plasmopara viticola is “A (the infected area rate of less than 5%)”. Besides, the “Effect: controlling effect against cucumber downy mildew (infected area rate)” value in series [1] was “A (the infected area rate of less than 5%)”. Moreover, in the series with Phytophthora infestans, the “Effect: controlling effect against tomato late blight (infected area rate)” value is “A (Infected area rate of less than 5%)”.
For the compound `CCSC(=O)N[C@H](C(=O)N[C@H](CNC(=O)c1cc2ccccc2o1)C(C)C)C(C)C` [Compound No. 793, N-[1-(S)-[[(benzofuran-2-carbonyl)amino]methyl]-2-methylpropyl][3-methyl-2-(S)-(ethylthiocarbonylamino)]butyramide], the “Effect: controlling effect against grape downy mildew (infected area rate)” value with Plasmopara viticola is “A (the infected area rate of less than 5%)”. Besides, the “Effect: controlling effect against cucumber downy mildew (infected area rate)” value in series [1] is “A (the infected area rate of less than 5%)”. The “Effect: controlling effect against tomato late blight (infected area rate)” value in the series with Phytophthora infestans was “A (Infected area rate of less than 5%)”.
